The OPERA property sets (Mansouri et al. 2018)

Row | Compound | logP
1 | Cc1c[n+]([O-])c(C)c(Cl)n1 | 0.44
2 | c1ccc(-c2cnccn2)cc1 | 2.07
3 | Cc1ccc(-c2nccnc2-c2ccc(C)cc2)cc1 | 4.1
4 | Cc1ncc(-c2ccccc2)nc1-c1ccccc1 | 4.29
5 | Cc1ncc(C)[n+]([O-])c1Cl | 0.19
6 | COc1ccc(-c2nccnc2-c2ccc(OC)cc2)cc1 | 3.42
7 | COc1ccccc1Cc1cnc(-c2ccccc2)c(-c2ccccc2)n1 | 5.18
8 | COc1ccc(-c2ncc(C#N)nc2-c2ccc(OC)cc2)cc1 | 3.7
9 | Cc1nc(-c2ccccc2)cnc1-c1ccccc1 | 4.28
10 | COc1ccc(-c2ncc(Cl)nc2-c2ccc(OC)cc2)cc1 | 4.3
11 | CCOc1cnc(-c2ccccc2)c(-c2ccccc2)n1 | 4.73
12 | Cc1cnc(-c2ccc(C#N)cc2)c(-c2ccc(C#N)cc2)n1 | 2.52
13 | CC(C)c1cnc(-c2ccccc2)c(-c2ccccc2)n1 | 4.71
14 | Clc1cnc(-c2ccccc2)c(-c2ccccc2)n1 | 4.05
15 | Cc1cnc(-c2ccc(F)cc2)c(-c2ccc(F)cc2)n1 | 3.75
16 | c1ccc(-c2nccnc2-c2ccccc2)cc1 | 3.19

Row | Compound | logP
17 | COc1ccc(-c2ncc(OC)nc2-c2ccc(OC)cc2)cc1 | 4.47
18 | COc1ccc(-c2nc(C)c(C)nc2-c2ccc(OC)cc2)cc1 | 4.1
19 | Cc1nc(Cl)c(C)[n+]([O-])c1Cl | 1.08
20 | COc1cccc(Cc2cnc(-c3ccccc3)c(-c3ccccc3)n2)c1 | 5.2
21 | Cc1nc(Cl)c(C)nc1Cl | 2.4
22 | COc1ccc(-c2ncc(C)nc2-c2ccc(OC)cc2)cc1 | 3.66
23 | COC(=O)c1cnc(-c2ccc(OC)cc2)c(-c2ccc(OC)cc2)n1 | 3.41
24 | COc1ccc(-c2cnccn2)cc1 | 2.24
25 | [O-][n+]1cc(Cl)nc(-c2ccc(Cl)cc2)c1-c1ccc(Cl)cc1 | 3.66
26 | Cc1cnc(-c2ccccc2)c(-c2ccccc2)n1 | 3.52
27 | CCc1ncc(-c2ccccc2)nc1-c1ccccc1 | 4.66
28 | COc1cnc(-c2ccccc2)c(-c2ccccc2)n1 | 4.21
29 | CCc1nc(CC)c(-c2ccccc2)nc1-c1ccccc1 | 4.83
30 | CCOc1cnc(-c2ccc(OC)cc2)c(-c2ccc(OC)cc2)n1 | 5
31 | CCc1cnc(-c2ccc(OC)cc2)c(-c2ccc(OC)cc2)n1 | 4.22
32 | [O-][n+]1ccnc(-c2ccc(Br)cc2)c1-c1ccc(Br)cc1 | 3.41
